# Laboratory results taken from patent US8846659B2 (priority 2010, dated 2014).
# Where a name gives a salt, the structure may show the parent alone.
# Key:
# [1] = test system: recombinant NL-Rluc virus; assay: Inhibition of HIV replication: susceptibility of recombinant NL-Rluc virus to compounds; type: cell-based; conditions: Human immunodeficiency virus 1, read-out: Activity (EC50, 50% effective concentration)
# HIV integrase = HIV integrase (Human immunodeficiency virus type 1 group M subtype B, UniProt P12497); assay: HIV-integrase inhibition activity: inhibition of [3H]BMS-641493 binding to enzyme-SPA bead complexes; conditions: competition with [3H]BMS-641493, enzyme-SPA bead complexes; read-out: Activity (Ki toward integrase)
# Text: HIV-Integrase Inhibition Activity.
# Radiolabeled integrase inhibitor, BMS-641493 was used as a known reference ligand to determine the binding constants towards the integrase enzyme of the compounds described in this invention using a method similar to that described in; Dicker et al. J. Biological Chem. 2007, 282, 31186-31196; Dicker et al. J. Biol. Chem. 2008, 283, 23599-23609 and Dicker et al. Biochemistry 2008, 47, 13481-13488. BMS-641493 is a known active-site binding inhibitor as it can be competed […] for [3H]BMS-641493 were determined from fitting data to a saturation binding curve using Graphpad Prism, V4.01. The Ki measurement toward integrase was made by measuring the inhibition of binding of [3H]BMS-641493 to enzyme-SPA bead complexes in the presence of serial dilutions of the test compounds. The Ki value was determined from the [3H]BMS-641493 Kd and the inhibition binding curve using Graphpad Prism, V4.03.
Compound,EC50 [1] [nM],Ki (HIV integrase) [nM]
"NC12CCC(CC1)Cn1c2nc(-c2ncc(Cc3ccc(F)cc3)[nH]2)c(O)c1=O [Example 1, 10-Amino-2-[4-[(4-fluorophenyl)methyl]-1H-imidazol-2-yl]-7,8,9,10-tetrahydro-3-hydroxy-7,10-ethanopyrimido[1,2-a]azepin-4(6H)-one]",21,–
"CN(C)C(=O)C(=O)NC12CCC(CC1)Cn1c2nc(-c2ncc(Cc3ccc(F)cc3)[nH]2)c(O)c1=O [Example 2, N′-(2-(4-(4-Fluorobenzyl)-1H-imidazol-2-yl)-3-hydroxy-4-oxo-6,7,8,9-tetrahydro-7,10-ethanopyrimido[1,2-a]azepin-10(4H)-yl)-N,N-dimethylethanediamide]",5,21
"O=C(NC12CCC(CC1)Cn1c2nc(-c2ncc(Cc3ccc(F)cc3)[nH]2)c(O)c1=O)C(=O)N1CCCC1 [Example 3, N-(2-(4-(4-Fluorobenzyl)-1H-imidazol-2-yl)-3-hydroxy-4-oxo-6,7,8,9-tetrahydro-7,10-ethanopyrimido[1,2-a]azepin-10(4H)-yl)-2-oxo-2-(pyrrolidin-1-yl)acetamide]",18,122
"Cc1cc(C(=O)NC23CCC(CC2)Cn2c3nc(-c3ncc(Cc4ccc(F)cc4)[nH]3)c(O)c2=O)no1 [Example 4, N-(2-(4-(4-Fluorobenzyl)-1H-imidazol-2-yl)-3-hydroxy-4-oxo-6,7,8,9-tetrahydro-7,10-ethanopyrimido[1,2-a]azepin-10(4H)-yl)-5-methyl-1,2-oxazole-3-carboxamide]",8,21
NC12CCC(CC1)Cn1c2nc(-c2ncc(Cc3ccc(F)cc3)s2)c(O)c1=O [Example 5],60,3880
"CN(C)C(=O)C(=O)NC12CCC(CC1)Cn1c2nc(-c2ncc(Cc3ccc(F)cc3)s2)c(O)c1=O [Example 6, N′-(2-(5-(4-Fluorobenzyl)-1,3-thiazol-2-yl)-3-hydroxy-4-oxo-6,7,8,9-tetrahydro-7,10-ethanopyrimido[1,2-a]azepin-10(4H)-yl)-N,N-dimethylethanediamide]",1,400
"CN(C)C(=O)C(=O)NC12CCC(CC1)Cn1c2nc(-c2nnc(Cc3ccc(F)cc3)o2)c(O)c1=O [Example 7, N′-(2-(5-(4-Fluorobenzyl)-1,3,4-oxadiazol-2-yl)-3-hydroxy-4-oxo-6,7,8,9-tetrahydro-7,10-ethanopyrimido[1,2-a]azepin-10(4H)-yl)-N,N-dimethylethanediamide]",2,222
"CN(C)C(=O)C(=O)NC12CCC(CC1)Cn1c2nc(-c2ncc(Cc3ccc(F)cc3)o2)c(O)c1=O [Example 8, N′-(4-(5-(4-Fluorobenzyl)-1,3-oxazol-2-yl)-3-hydroxy-4-oxo-6,7,8,9-tetrahydro-7,10-ethanopyrimido[1,2-a]azepin-10(4H)-yl)-N,N-dimethylethanediamide]",0.4,115
"CN(C)C(=O)C(=O)NC12CCC(CC1)Cn1c2nc(-c2ncn(Cc3ccc(F)cc3)n2)c(O)c1=O [Example 9, N′-[2-[1-[(4-Fluorophenyl)methyl]-1H-1,2,4-triazol-3-yl]-6,7,8,9-tetrahydro-3-hydroxy-4-oxo-7,10-ethanopyrimido[1,2-a]azepin-10(4H)-yl]-N,N-dimethylethanediamide]",–,1070
"Cc1cc(Cc2cnc(-c3nc4n(c(=O)c3O)CC3CCC4(NC(=O)C(=O)N(C)C)CC3)[nH]2)ccc1F [Example 10, N′-[2-[4-[(4-Fluoro-3-methylphenyl)methyl]-1H-imidazol-2-yl]-6,7,8,9-tetrahydro-3-hydroxy-4-oxo-7,10-ethanopyrimido[1,2-a]azepin-10(4H)-yl]-N,N-dimethyl-ethanediamide trifluoroacetate salt]",6,9
"Cc1cc(Cc2cnc(-c3nc4n(c(=O)c3O)CC3CCC4(NC(=O)c4cccnc4)CC3)[nH]2)ccc1F [Example 11, N-[2-[4-[(4-Fluoro-3-methylphenyl)methyl]-1H-imidazol-2-yl]-6,7,8,9-tetrahydro-3-hydroxy-4-oxo-7,10-ethanopyrimido[1,2-a]azepin-10(4H)-yl]-3-pyridinecarboxamide trifluoroacetate salt]",24,19
"Cc1cc(Cc2cnc(-c3nc4n(c(=O)c3O)CC3CCC4(NC(=O)c4cccnn4)CC3)[nH]2)ccc1F [Example 12, N-[2-[4-[(4-Fluoro-3-methylphenyl)methyl]-1H-imidazol-2-yl]-6,7,8,9-tetrahydro-3-hydroxy-4-oxo-7,10-ethanopyrimido[1,2-a]azepin-10(4H)-yl]-3-pyridazinecarboxamide trifluoroacetate salt]",8,13
"CN(C)C(=O)C(=O)N(C)C12CCC(CC1)Cn1c2nc(-c2ncc(Cc3ccc(F)cc3)[nH]2)c(O)c1=O [Example 13, N-[2-[4-[(4-Fluorophenyl)methyl]-1H-imidazol-2-yl]-6,7,8,9-tetrahydro-3-hydroxy-4-oxo-7,10-ethanopyrimido[1,2-a]azepin-10(4H)-yl]-N,N′,N′-trimethyl-ethanediamide trifluoroacetate salt]",2,13
"Cc1cc(Cc2c[nH]c(-c3nc4n(c(=O)c3O)CC3CCC4(NC(=O)C(C)(C)n4cncn4)CC3)n2)ccc1F [Example 14, N-[2-[4-[(4-Fluoro-3-methylphenyl)methyl]-1H-imidazol-2-yl]-6,7,8,9-tetrahydro-3-hydroxy-4-oxo-7,10-ethanopyrimido[1,2-a]azepin-10(4H)-yl]-alpha,alpha-dimethyl-1H-1,2,4-triazole-1-acetamide trifluoroacetate salt]",7,41
"CC(=O)N(C)C1(C(=O)NC23CCC(CC2)Cn2c3nc(-c3ncc(Cc4ccc(F)c(C)c4)[nH]3)c(O)c2=O)CC1 [Example 15, 1-(Acetylmethylamino)-N-[2-[4-[(4-fluoro-3-methylphenyl)methyl]-1H-imidazol-2-yl]-6,7,8,9-tetrahydro-3-hydroxy-4-oxo-7,10-ethanopyrimido[1,2-a]azepin-10(4H)-yl]-cyclopropanecarboxamide trifluoroacetate salt]",53,57
"CN(C)C(=O)C(=O)NC12CCC(CC1)Cn1c2nc(-c2nnc(Cc3ccc(F)cc3)s2)c(O)c1=O [Example 16, N′-[2-[5-[(4-Fluorophenyl)methyl]-1,3,4-thiadiazol-2-yl]-6,7,8,9-tetrahydro-3-hydroxy-4-oxo-7,10-ethanopyrimido[1,2-a]azepin-10(4H)-yl]-N,N-dimethylethanediamide]",21,1470
"Cc1cc(Cc2c[nH]c(-c3nc4n(c(=O)c3O)CC3CCC4(N(C)C(=O)C(=O)N(C)C)CC3)n2)ccc1F [Example 17, N-[2-[4-[(4-Fluoro-3-methylphenyl)methyl]-1H-imidazol-2-yl]-6,7,8,9-tetrahydro-3-hydroxy-4-oxo-7,10-ethanopyrimido[1,2-a]azepin-10(4H)-yl]-N,N′,N′-trimethyl-ethanediamide trifluoroacetate salt]",5,10
"Cc1cc(Cc2cnc(-c3nc4n(c(=O)c3O)CC3CCC4(NC(=O)c4ccn(C)n4)CC3)[nH]2)ccc1F [Example 18, N-[2-[4-[(4-Fluoro-3-methylphenyl)methyl]-1H-imidazol-2-yl]-6,7,8,9-tetrahydro-3-hydroxy-4-oxo-7,10-ethanopyrimido[1,2-a]azepin-10(4H)-yl]-1-methyl-1H-pyrazole-3-carboxamide]",5,16
